From ChEMBL document CHEMBL1201862, “PubChem BioAssay data set” (2004)
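Method: 48-hour compound exposure of cells in 96-well plates, five concentrations, linear interpolation of endpoints. Here, GI50 denotes the concentration required for 50% inhibition of growth.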 Calls of active or inactive are those of the source. Rule as the data show it: active = GI50 up to about 1.1 µM and inactive = higher.

Experiments:
Test in all cases: growth of human tumour cells (NCI), 48 h
TK-10 = test system: TK-10
UACC-62 = test system: UACC-62
SK-MEL-5 = test system: SK-MEL-5
ACHN = test system: ACHN
EKVX = test system: EKVX
OVCAR-4 = test system: OVCAR-4
OVCAR-8 = test system: OVCAR-8
SF-539 = test system: SF-539
NCI-H23 = test system: NCI-H23
SK-MEL-28 = test system: SK-MEL-28
786-0 = test system: 786-0
NCI-H226 = test system: NCI-H226
OVCAR-5 = test system: OVCAR-5
COLO 205 = test system: COLO 205
HOP-92 = test system: HOP-92
CAKI-1 = test system: CAKI-1

Measured: GI50

O=C1OC2CCCC[C@@H]2C2C[C@]34CCCCC3[C@@H](C(=O)O4)C12 (some centres not stated)
inactive: TK-10 > 100 µM | UACC-62 > 100 µM | SK-MEL-5 > 100 µM | ACHN > 100 µM | EKVX > 100 µM | OVCAR-4 > 100 µM | OVCAR-8 > 100 µM | SF-539 > 100 µM | NCI-H23 > 100 µM | SK-MEL-28 > 100 µM | 786-0 > 100 µM | NCI-H226 > 100 µM | OVCAR-5 > 100 µM | COLO 205 > 100 µM | HOP-92 > 100 µM

CCCC(=O)c1ccc(=O)n(C)c1
inactive: TK-10 > 100 µM | UACC-62 > 100 µM | SK-MEL-5 > 100 µM | ACHN > 100 µM | EKVX > 100 µM | OVCAR-4 > 100 µM | OVCAR-8 > 100 µM | SF-539 > 100 µM | NCI-H23 > 100 µM | SK-MEL-28 > 100 µM | 786-0 > 100 µM | NCI-H226 > 100 µM | OVCAR-5 > 100 µM | CAKI-1 > 100 µM | COLO 205 > 100 µM | HOP-92 > 100 µM

CC(=O)OCC1OC(NC(=S)N/N=C2\CC(c3ccccc3)Oc3ccccc32)C(OC(C)=O)C(OC(C)=O)C1OC(C)=O (configuration not stated)
inactive: TK-10 > 100 µM | UACC-62 > 100 µM | SK-MEL-5 > 100 µM | ACHN > 100 µM | EKVX > 100 µM | OVCAR-4 > 100 µM | OVCAR-8 > 100 µM | SF-539 > 100 µM | NCI-H23 > 100 µM | 786-0 > 100 µM | NCI-H226 > 100 µM | OVCAR-5 > 100 µM | CAKI-1 > 100 µM | COLO 205 > 100 µM | HOP-92 > 100 µM

O=C(c1ccc(Cl)cc1)N(C(=S)N1CCN(c2ccccc2)CC1)c1ccccc1
inactive: TK-10 > 100 µM | UACC-62 > 100 µM | SK-MEL-5 > 100 µM | ACHN > 100 µM | OVCAR-4 > 100 µM | OVCAR-8 > 100 µM | SF-539 > 100 µM | NCI-H23 > 100 µM | SK-MEL-28 > 100 µM | 786-0 > 100 µM | NCI-H226 53.8 µM | OVCAR-5 > 100 µM | CAKI-1 > 100 µM | COLO 205 > 100 µM | HOP-92 > 100 µM

O=C(CC(=O)C(=O)CC(=O)OCc1ccccc1)OCc1ccccc1
inactive: TK-10 > 100 µM | UACC-62 84.9 µM | SK-MEL-5 66.1 µM | EKVX > 100 µM | OVCAR-4 50.5 µM | OVCAR-8 > 100 µM | SF-539 53.5 µM | NCI-H23 53.2 µM | SK-MEL-28 67.6 µM | 786-0 > 100 µM | OVCAR-5 > 100 µM | CAKI-1 > 100 µM | COLO 205 > 100 µM | HOP-92 58.1 µM

CC(Cl)(/C=C/Cl)C(Cl)/C=C/C(Cl)(CCl)CBr (configuration not stated)
inactive: TK-10 7.45 µM | UACC-62 1.68 µM | SK-MEL-5 7.52 µM | ACHN 5.51 µM | EKVX 31.8 µM | OVCAR-4 3.05 µM | OVCAR-8 1.71 µM | NCI-H23 1.88 µM | SK-MEL-28 2.24 µM | 786-0 2.9 µM | NCI-H226 10.2 µM | OVCAR-5 16 µM | CAKI-1 12.2 µM | COLO 205 2.01 µM | HOP-92 2.07 µM

O=C(CC(=O)N1N=C(N2c3ccccc3Sc3ccccc32)CC1c1ccccc1)Nc1ccc(Cl)cc1 (configuration not stated)
inactive: TK-10 > 100 µM | UACC-62 > 100 µM | SK-MEL-5 > 100 µM | ACHN > 100 µM | EKVX > 100 µM | OVCAR-4 > 100 µM | OVCAR-8 > 100 µM | SF-539 > 100 µM | NCI-H23 > 100 µM | SK-MEL-28 > 100 µM | 786-0 > 100 µM | OVCAR-5 > 100 µM | CAKI-1 > 100 µM | COLO 205 > 100 µM | HOP-92 > 100 µM

COc1ccc2c3c(c(C(=O)O)oc13)CCC2
inactive: TK-10 > 100 µM | UACC-62 > 100 µM | SK-MEL-5 > 100 µM | ACHN > 100 µM | EKVX > 100 µM | OVCAR-4 > 100 µM | OVCAR-8 > 100 µM | SF-539 > 100 µM | NCI-H23 > 100 µM | SK-MEL-28 > 100 µM | 786-0 > 100 µM | NCI-H226 18.2 µM | OVCAR-5 > 100 µM | COLO 205 > 100 µM | HOP-92 > 100 µM

O=C(Nc1nc2ncn(CC(COc3ccccc3)OC(=O)c3ccccc3)c2c(=O)[nH]1)c1ccccc1 (configuration not stated)
inactive: UACC-62 > 100 µM | SK-MEL-5 > 100 µM | ACHN > 100 µM | EKVX > 100 µM | OVCAR-4 > 100 µM | OVCAR-8 > 100 µM | SF-539 > 100 µM | SK-MEL-28 > 100 µM | 786-0 > 100 µM | NCI-H226 > 100 µM | OVCAR-5 > 100 µM | CAKI-1 > 100 µM
